# Read-outs that look alike come from different tables or passages of the source.
# Experiments:
# K562 cells = assay: MTS assay, cytotoxicity (growth inhibition) on K562; assay type: cell-based, human; conditions: for Metabolic Activity K562: MTS, 3-6 days, DMSO control = 100%
# Method: The cell line is widely available, e.g., from American Type Culture Collection (“ATCC”; Manassas, Va., USA; cat# CCL-243) and can be propogated in a variety of media, e.g., ATCC's Iscove's modified Dulbecco's medium with 4 mM L-glutamine adjusted to contain 1.5 g/L sodium bicarbonate, 90%; fetal bovine serum, 10%; 37C.
# (§1) To K562 cells (suspension grown in DMEM media supplemented w/10% Fetal Bovine Serum (FBS) and 1 mM HEPES; subcultured biweekly at 100K cells/ml) in a 96 well plate (0.1 ml medium; 2000 cells per well) were added various concentrations of 17-AAG (CF7) and the effects measured over a period of 3-6 days using an MTS assay protocol similar to that offered by Promega Corp (Madison, Wis., US; cat# G5421).
# (§2) The MTS assay is a colorimetric assay for determining the number of viable cells in proliferation, cytotoxicity or chemosensitivity assays. The CellTiter 96® AQueous Assay is composed of solutions of tetrazolium compound (3-(4,5-dimethylthiazol-2-yl)-5-(3-carboxymethoxyphenyl)-2-(4-sulfophenyl)-2H-tetrazolium, inner salt; MTS) and an electron coupling reagent (phenazine methosulfate) PMS. MTS is bioreduced by cells into a formazan that is soluble in tissue culture medium. Barltrop et al. (1991) Bioorg. & Med. Chem. Lett. 1, 611. The absorbance of the formazan at 490 nm can be measured directly from 96 well assay plates without additional processing. Cory et al. (1991) Cancer Commun. 3, 207; Riss, T. L. and Moravec, R. A. (1992) Mol. Biol. Cell 3 (Suppl.), 184a. The conversion of MTS into the aqueous soluble formazan is accomplished by dehydrogenase enzymes found in metabolically active cells. The quantity of formazan product as measured by the amount of 490 nm absorbance is directly proportional to the number of living cells in culture.
# (§3) Using the MTS assay, cytotoxicity (defined as “growth inhibition” and not necessarily versus renal proximal tubular […] cells (normal cells) was determined as shown in the following Tables. “Sem” refers to standard error of the mean, which is calculated as the standard deviation divided by the square root of the sample size; the numbers reflect triplicate replicates. Dilutions of the compounds were prepared in DMSO and straight DMSO was used as a control corresponding to 100% metabolic activity.
# RPTEC = assay: MTS assay, cytotoxicity (growth inhibition) on normal cells RPTEC; assay type: cell-based; conditions: for Metabolic Activity RPTEC: MTS, 3-6 days, DMSO control = 100%; for IC50: read-out: RPTEC IC50
# Method: as §1, §2, §3
# [1] = system: bcr-abl expressing leukemia cell lines; conditions: average of six cell lines; read-out: IC50 averaged in six bcr-abl expressing leukemia cell lines; cited from earlier work
# [2] = system: bcr-abl-negative leukemia lines; conditions: mean of four cell lines; read-out: mean IC50 in a panel of four bcr-abl-negative leukemia lines; cited from earlier work
# [3] = Homo sapiens, K562, read-out: K562 IC50
# [4] = separate study, compared with compound 237
compound,measurement,setting,value
"C=CCNC1=C2C[C@@H](C)C[C@H](OC)[C@H](O)[C@@H](C)/C=C(\C)[C@H](OC(N)=O)[C@@H](OC)/C=C\C=C(/C)C(=O)NC(=CC1=O)C2=O [CF7, 17-allylamino-17-demethoxygeldanamycin]",Metabolic Activity K562,K562 cells; 0.0003 uM,88.00%
same,Metabolic Activity K562,K562 cells; 0.0010 uM,83.81%
same,Metabolic Activity K562,K562 cells; 0.0030 uM,83.00%
same,Metabolic Activity K562,K562 cells; 0.0100 uM,85.94%
same,Metabolic Activity K562,K562 cells; 0.0300 uM,80.12%
same,Metabolic Activity K562,K562 cells; 0.1000 uM,44.06%
same,Metabolic Activity K562,K562 cells; 0.3000 uM,14.40%
same,Metabolic Activity K562,K562 cells; 1.0000 uM,9.51%
same,Metabolic Activity K562,K562 cells; 3.0000 uM,8.12%
same,Metabolic Activity K562,K562 cells; 10.0000 uM,7.89%
same,IC50,"K562 cells; bcr-abl fusion protein cancer line, MTS assay, read-out: K562 IC50",0.07 µM
same,Metabolic Activity RPTEC,RPTEC; 0.0003 uM,98.69%
same,Metabolic Activity RPTEC,RPTEC; 0.0010 uM,92.26%
same,Metabolic Activity RPTEC,RPTEC; 0.0030 uM,92.73%
same,Metabolic Activity RPTEC,RPTEC; 0.0100 uM,91.81%
same,Metabolic Activity RPTEC,RPTEC; 0.0300 uM,86.40%
same,Metabolic Activity RPTEC,RPTEC; 0.1000 uM,86.46%
same,Metabolic Activity RPTEC,RPTEC; 0.3000 uM,58.03%
same,Metabolic Activity RPTEC,RPTEC; 1.0000 uM,34.01%
same,Metabolic Activity RPTEC,RPTEC; 3.0000 uM,22.01%
same,Metabolic Activity RPTEC,RPTEC; 10.0000 uM,20.10%
same,IC50,"RPTEC; normal cells, MTS assay",0.4 µM
COC1/C=C\C=C(/C)C(=O)NC2=CC(=O)C(NCCCN(C)CCCNC3=C4CC(C)CC(OC)C(O)C(C)/C=C(\C)C(OC(N)=O)C(OC)/C=C\C=C(/C)C(=O)NC(=CC3=O)C4=O)=C(CC(C)CC(OC)C(O)C(C)/C=C(\C)C1OC(N)=O)C2=O (stereo not shown) [Compound 208],IC50,K562 cells; [3],0.05 µM
same,IC50,"RPTEC; Homo sapiens, RPTEC",1 µM
COC1/C=C\C=C(/C)C(=O)NC2=CC(=O)C(NCCCNCCCNC3=C4CC(C)CC(OC)C(O)C(C)/C=C(\C)C(OC(N)=O)C(OC)/C=C\C=C(/C)C(=O)NC(=CC3=O)C4=O)=C(CC(C)CC(OC)C(O)C(C)/C=C(\C)C1OC(N)=O)C2=O (stereo not shown) [Compound 237],IC50,K562 cells; [3],0.1 µM
same,IC50,"RPTEC; Homo sapiens, RPTEC",4 µM
CCCNC/C=C/CNC1=C2CC(C)CC(OC)C(O)C(C)/C=C(\C)C(OC(N)=O)C(OC)/C=C\C=C(/C)C(=O)NC(=CC1=O)C2=O (stereo not shown) [Compound 481],IC50,K562 cells; [3],0.4 µM
same,IC50,"RPTEC; Homo sapiens, RPTEC",4 µM
COC1/C=C\C=C(/C)C(=O)NC2=CC(=O)C(NCCN(C)CCNC3=C4CC(C)CC(OC)C(O)C(C)/C=C(\C)C(OC(N)=O)C(OC)/C=C\C=C(/C)C(=O)NC(=CC3=O)C4=O)=C(CC(C)CC(OC)C(O)C(C)/C=C(\C)C1OC(N)=O)C2=O (stereo not shown) [Compound 483],IC50,"K562 cells; Homo sapiens, K562, bcr-abl fusion protein cancer line, MTS assay, read-out: K562 IC50",0.07 µM
same,IC50,"RPTEC; Homo sapiens, RPTEC",1 µM
CO[C@H]1[C@@H](OC)C[C@H](C)[C@@H](OC)C2=CC(=O)C=C(NC(=O)/C(C)=C/C=C\[C@H](OC)[C@@H](OC(N)=O)/C(C)=C/[C@@H]1C)C2=O [herbimycin A],IC50,[1],0.0293 µM
same,IC50,[2],0.399 µM
C[C@@H]1C[C@H]2O[C@@H]2/C=C\C=C\C(=O)Cc2c(Cl)c(O)cc(O)c2C(=O)O1 [radicicol],effect on K562 (separate study),K562 cells; [4],approximating those obtained for compound 237
same,effect on RPTEC (separate study),RPTEC; [4],approximating those obtained for compound 237

# — patent publication US20060079493A1, “Methods for treating genetically- defined proliferative disorders with hsp90 inhibitors” (priority 2001, published 2006)
